Key:
[1] = target: T1, Smo (smoothened), wild type hSmo (Homo sapiens, UniProt Q99835); test: BODIPY-cyclopamine competition in hSmo-transfected HEK293 cells (microscopy and flow cytometry); format: cell-based
T1 construct: wild type hSmo expressed in HEK293 cells

[2] = target: T1, Smo (smoothened), wild type hSmo; test: BODIPY-cyclopamine competition in hSmo-transfected HEK293 cells (positive control); format: cell-based

T1 sequence (Q99835 28-787): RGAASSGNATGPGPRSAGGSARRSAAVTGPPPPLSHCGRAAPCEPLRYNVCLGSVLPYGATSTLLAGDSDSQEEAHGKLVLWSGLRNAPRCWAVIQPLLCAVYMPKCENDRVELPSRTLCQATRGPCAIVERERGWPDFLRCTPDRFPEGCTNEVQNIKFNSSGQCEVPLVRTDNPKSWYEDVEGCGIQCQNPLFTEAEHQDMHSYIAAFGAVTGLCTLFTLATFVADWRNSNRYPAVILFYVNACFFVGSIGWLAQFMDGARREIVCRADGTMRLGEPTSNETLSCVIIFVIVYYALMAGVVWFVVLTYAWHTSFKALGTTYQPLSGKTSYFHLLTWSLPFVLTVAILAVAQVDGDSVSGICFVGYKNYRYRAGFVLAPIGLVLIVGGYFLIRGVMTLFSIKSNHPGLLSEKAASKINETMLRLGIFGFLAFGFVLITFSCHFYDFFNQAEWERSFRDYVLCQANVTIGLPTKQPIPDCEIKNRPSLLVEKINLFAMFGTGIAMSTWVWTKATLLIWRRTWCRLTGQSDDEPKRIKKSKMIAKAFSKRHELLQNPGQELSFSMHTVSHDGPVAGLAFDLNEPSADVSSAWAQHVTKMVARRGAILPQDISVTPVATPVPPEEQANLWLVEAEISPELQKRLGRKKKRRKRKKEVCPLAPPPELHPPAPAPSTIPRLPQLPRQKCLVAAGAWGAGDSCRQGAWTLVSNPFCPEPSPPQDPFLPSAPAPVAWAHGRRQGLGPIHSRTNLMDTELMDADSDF

Compound	BODIPY-cyclopamine competition in hSmo-transfected HEK293 cells (microscopy and) [1]	BODIPY-cyclopamine competition in hSmo-transfected HEK293 cells (positive contro) [2]
Cc1c(-c2ccnn2C)nnc(N2CCC(NC(=O)c3ccc(F)cc3C(F)(F)F)CC2)c1C [L-4]	there was a dose-dependent replacement of BODIPY-cyclopamine by L-4	–
CC1=C2C[C@H]3[C@@H](CC=C4C[C@@H](O)CC[C@@]43C)[C@@H]2CC[C@]12O[C@@H]1C[C@H](C)CN[C@H]1[C@H]2C [cyclopamine]	–	It was similar to the positive control, cyclopamine

Reference: article PMC6393386 (Frontiers in Pharmacology, 2019)
